One series has as its target humanized OX2 receptor (Homo sapiens (Human), UniProt O43614). The series can be described thus: Antagonism of humanized OX2 receptor assay (fluorescence detection of free cytoplasmic calcium, 10 nM orexin B). It is filed as cell-based. Conditions: humanized OX2 receptor transfected HEK-293 cells. Here is the method:
The capability of the compounds to antagonism of humanized OX2 receptor transfected by the HEK-293 cells was evaluated by the method of fluorescence detected free calcium concentration in the cytoplasm. The cells were suspended in cell culture medium (invitrogen), and then added to a microplate with an average density of 3×10^4 cells/well. The fluorescent probes (Fluo4 NW, Invitrogen) was mixed with probenecid Hank's balanced salt solution (invitrogen), followed by addition of 20 mM hydroxyethyl piperazine […] (invitrogen) (pH 7.4). The resulting mixture was eventually added to the microwells containing cells. The cells were incubated at 37° C. for 60 min, and then balanced at 22° C. for 15 min. The microplate was placed in a microplate reader (CellLux, PerkinElmer), and the solution of test compound with different concentrations or Hank's balanced salt solution was added. The microplate containing the solution was incubated for 5 min, followed by the addition of 10 nM of orexin B or a balanced salt solution (as control). The changes of fluorescence intensity proportional to the concentration of calcium ions in the cytoplasm were measured.
With the substrate control as 0 and 10 nM of orexin B as 100%, inhibition rate of each compound was recorded. Referring to the compound JNJ10397049, several different concentrations were measured in each experiment. Dose-response curves were made, and IC50 value of each compound was calculated.

Another series deals with humanized OX1 receptor (Homo sapiens (Human), UniProt O43613). In words: Antagonism of humanized OX1 receptor assay (fluorescence detection of free cytoplasmic calcium, 3 nM orexin A). The series is classed as cell-based. Conditions: humanized OX1 receptor transfected CHO cells. Here is the method:
The capability of the compounds to the antagonism of humanized OX1 receptor transfected to the Chinese hamster ovary (CHO) cells was evaluated by the method of fluorescence detected free calcium concentration in the cytoplasm. The cells were suspended in a cell culture medium (invitrogen), and then plated to a microplate with an average density of 2×10^4 cells/well. The fluorescent probes (Fluo4 NW, Invitrogen) was mixed with probenecid Hank's balanced salt solution (invitrogen), followed by addition of 20 mM hydroxyethyl piperazine […] (invitrogen) (pH 7.4). The resulting mixture was eventually added to the microwells containing cells. The cells were incubated at 37° C. for 60 min, and then balanced at 22° C. for 15 min. The microplate was placed in a microplate reader (CellLux, PerkinElmer), and the solution of test compound with different concentrations or Hank's balanced salt solution was added. The microplate containing the solution was incubated for 5 min, followed by the addition of 3 nM of orexin A or a balanced salt solution (as control). The changes of fluorescence intensity proportional to the concentration of calcium ions in the cytoplasm were measured.
With the substrate control as 0 and 3 nM orexin A as 100%, inhibition rate of each compound was recorded. Referring to the compound SB334867, several different concentrations were measured in each experiment. Dose-response curves were made, and IC50 value of each compound was calculated.

The nature of series [1]: Pharmacokinetic evaluation with intravenous or oral administration. It is filed as in vivo. The note with it: rats; for AUC(0-inf) / AUC(0-t) / Cmax / Tmax / clearance / Vd: rat, plasma; for Vd: read-out: Vss. Here is the method:
Pharmacokinetics of the compound of the present invention in rats, dogs or monkeys was evaluated in the present invention. The compounds of this invention were administered with a saline solution of 5% DMSO+5% Kolliphor HS 15+2% (2% HCl)+88% Saline or 10% DMSO+10% Kolliphor HS 15+80% physiological. For intravenous administration, the animals were given a dose of 1 mg/kg, drew blood (0.3 mL) at the time point of 0.083, 0.25, 0.5, 1.0, 2.0, 4.0, 6.0, 8.0 and 24 h, and centrifuged in 3,000 or 4,000 rpm for 10 min. For oral (p.o.) administration, the animals were given a dose of 2.5 mg/kg or 5 mg/kg, drew blood (0.3 mL) at the time point of 0.25, 0.5, 1.0, 2.0, 4.0, 6.0, 8.0 and 24 h, and centrifuged in 3,000 or 4,000 rpm for 10 min. Plasma solution was collected and was stored at −20° C. or […] until LC/MS/MS analysis.

Where [2] appears, read: intravenous administration, 1 mg/kg.

The structures appear in SMILES notation.

Sequence of humanized OX2 receptor (O43614 whole entry): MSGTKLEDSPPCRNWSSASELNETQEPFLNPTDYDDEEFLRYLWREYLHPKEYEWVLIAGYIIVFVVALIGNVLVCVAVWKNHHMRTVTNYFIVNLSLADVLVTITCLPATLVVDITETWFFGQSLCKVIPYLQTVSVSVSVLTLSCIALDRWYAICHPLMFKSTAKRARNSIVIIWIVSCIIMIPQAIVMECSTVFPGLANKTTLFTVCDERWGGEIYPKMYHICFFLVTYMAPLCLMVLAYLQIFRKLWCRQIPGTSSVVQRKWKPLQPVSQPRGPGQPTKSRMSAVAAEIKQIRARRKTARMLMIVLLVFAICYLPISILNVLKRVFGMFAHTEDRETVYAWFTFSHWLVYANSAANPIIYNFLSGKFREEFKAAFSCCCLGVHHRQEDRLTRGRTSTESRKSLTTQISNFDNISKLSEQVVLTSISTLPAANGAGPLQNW
Sequence of humanized OX1 receptor (O43613 whole entry): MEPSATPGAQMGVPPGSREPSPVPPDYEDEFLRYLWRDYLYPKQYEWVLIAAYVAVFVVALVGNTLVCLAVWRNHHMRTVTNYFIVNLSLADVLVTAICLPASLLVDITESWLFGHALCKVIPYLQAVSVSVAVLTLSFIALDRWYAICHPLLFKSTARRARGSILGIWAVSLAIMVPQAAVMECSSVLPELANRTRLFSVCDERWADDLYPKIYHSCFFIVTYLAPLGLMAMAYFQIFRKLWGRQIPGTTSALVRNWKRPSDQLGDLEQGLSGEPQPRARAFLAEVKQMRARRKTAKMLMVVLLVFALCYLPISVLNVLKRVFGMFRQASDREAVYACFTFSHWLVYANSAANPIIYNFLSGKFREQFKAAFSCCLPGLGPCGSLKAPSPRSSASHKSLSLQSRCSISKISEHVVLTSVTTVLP

As usually defined, the IC50 is the concentration at which inhibition is half-maximal. For `Cc1ccc(-n2nccn2)c(C(=O)N2CCCN(c3nc4ccc(F)cc4c(=O)[nH]3)CC2)c1` [Example 1, 6-fluoro-2-(4-(5-methyl-2-(2H-1,2,3-triazol-2-yl)benzoyl)-1,4-diazepan-1-yl)quinazolin-4(3H)-one], the IC50 was 300 nM at humanized OX2 receptor and 322 nM on humanized OX1 receptor.

For orientation: AUC(0-inf) means total exposure, with the tail of the curve extrapolated. A higher AUC(0-inf) goes with high exposure. What is called AUC(0-t) is the area under the concentration-time curve up to a stated or last time point. A higher AUC(0-t) goes with high exposure. The Cmax is the peak of the concentration-time curve. A word on the Tmax: it is the time from dosing to the highest level. Consider `Cc1ccc(-n2nccn2)c(C(=O)N2CCN(c3nc4ccc(F)cc4c(=O)[nH]3)CCC2C)c1` (centres unmarked) [Example 2, 6-fluoro-2-(5-methyl-4-(5-methyl-2-(2H-1,2,3-triazol-2-yl)benzoyl)-1,4-diazepan-1-yl)quinazolin-4(3H)-one], for which the IC50 at humanized OX2 receptor is 169 nM. Further, the IC50 on humanized OX1 receptor worked out at 543 nM. Further, in series [1] (setting [2]), the AUC(0-inf) amounted to 866 ng·h/mL, the AUC(0-t) is 865 ng·h/mL, the concentration peaked (Cmax) at 1400 ng/mL and the time to peak (Tmax) is 4.98 min. For the same compound, in series [1] (setting [2]), the clearance stood at 19.2 mL/min/kg and the Vd turned out to be 0.66 L/kg. Besides, in series [1] (oral administration, 2.5 mg/kg), the AUC(0-inf) came out at 1780 ng·h/mL, the AUC(0-t) is 1770 ng·h/mL, the peak concentration (Cmax) turned out to be 1940 ng/mL and the Tmax is 20 min. Besides, in series [1] (oral administration, 2.5 mg/kg), the F is 81.8%.

As for `Cc1ccc(-n2nccn2)c(C(=O)N2CCCN(c3nc4ccc(Cl)cc4c(=O)[nH]3)CC2)c1` [Example 5, 6-chloro-2-(4-(5-methyl-2-(2H-1,2,3-triazol-2-yl)benzoyl)-1,4-diazepan-1-yl)quinazolin-4(3H)-one], the IC50 on humanized OX2 receptor turned out to be 263 nM; on humanized OX1 receptor it was 276 nM.

As for `Cc1ccc(-n2nccn2)c(C(=O)N2CCN(c3nc4ccc(Cl)cc4c(=O)[nH]3)CCC2C)c1` (centres unmarked) [Example 6, 6-chloro-2-(5-methyl-4-(5-methyl-2-(2H-1,2,3-triazol-2-yl)benzoyl)-1,4-diazepan-1-yl)quinazolin-4(3H)-one], the IC50 on humanized OX2 receptor is 221 nM. The IC50 at humanized OX1 receptor is 367 nM. Further, in series [1] (setting [2]), the AUC(0-inf) turned out to be 1740 ng·h/mL, the AUC(0-t) is 1730 ng·h/mL, the concentration peaked (Cmax) at 3660 ng/mL and the Tmax amounted to 4.98 min. For the same compound, in series [1] (setting [2]), the clearance is 9.66 mL/min/kg and the Vd was 0.292 L/kg. In series [1] (oral administration, 5 mg/kg), the AUC(0-inf) stood at 6840 ng·h/mL, the AUC(0-t) was 6800 ng·h/mL, the Cmax came out at 5680 ng/mL and the Tmax worked out at 20 min. The F in series [1] (oral administration, 5 mg/kg) is reported as 79%.

For the compound `O=C(c1ccccc1-n1nccn1)N1CCCN(c2nc3ccc(Cl)cc3c(=O)[nH]2)CC1` [Example 7, 2-(4-(2-(2H-1,2,3-triazol-2-yl)benzoyl)-1,4-diazepan-1-yl)-6-chloroquinazolin-4(3H)-one], in series [1] (setting [2]), the AUC(0-inf) was found to be 3700 ng·h/mL, the AUC(0-t) turned out to be 3450 ng·h/mL, the concentration peaked (Cmax) at 4080 ng/mL and the Tmax worked out at 4.98 min. In series [1] (setting [2]), the clearance came to 4.52 mL/min/kg and the Vd came out at 1.33 L/kg. Moreover, in series [1] (oral administration, 5 mg/kg), the area under the curve AUC(0-inf) is 15000 ng·h/mL, the AUC(0-t) was 14300 ng·h/mL, the highest level (Cmax) was 13800 ng/mL and the time to peak (Tmax) was found to be 15 min. This compound also registered a F in series [1] (oral administration, 5 mg/kg) of 83.1%.

Source of the values: patent publication US10196383B2, “Substituted quinazoline compounds and preparation and uses thereof” (Sunshine Lake Pharma Co., Ltd., priority 2015, dated 2019).
